{
  "source": "patent US20120258938A1",
  "about": "“Enzymatic Production or Chemical Synthesis and Uses for 5,7-Dienes and UVB Conversion Products Thereof” (priority 2008, published 2012)",
  "key": {"[1]": {"tested_on": "SKMEL-188 human melanoma cells", "test": "Proliferation (DNA synthesis) of SKMEL-188", "format": "cell-based", "conditions": "SKMEL-188, 72 h", "procedure": "To measure DNA synthesis, keratinocytes, melanoma or prostate cancer cells were plated in 96-well plates. After overnight incubation tested compounds were added to the medium to achieve final concentrations 10^−7-10^−10 [M]. 100 μl of medium per well containing vitamin D3 compound was added to the cells. After 36 hours of incubation [3H]-thymidine (specific activity 88.0 Ci/mmol; Amersham Biosciences, Picataway, N.Y., USA) was added at 1 μCi/mL medium. After 12 hours, media were discarded, cells detached with trypsin and harvested on a glass fiber filter (Packard, Meriden, Calif., USA). 3H-radioactivity was measured with a beta counter (Direct Beta-Counter Matrix 9600; Packard).\nHaCaT keratinocytes were an incubated for 48 h (FIG. 48A) or 72 h (FIG. 48B) in the presence of graded concentrations of 20(OH)D2 and/or 1,25(OH)2D3. […] Data are shown as mean±SD (n 3); *, p<0.05; **, p<0.01."}, "[2]": {"tested_on": "neonatal epidermal melanocytes", "test": "Proliferation of neonatal epidermal melanocytes", "format": "cell-based", "conditions": "48 hours"}, "CYP24": {"tested_on": "CYP24", "test": "Real-time RT PCR CYP24 mRNA, normal epidermal keratinocytes", "format": "cell-based, human", "procedure": "RNA was extracted as above. Reverse transcription was performed with Transcriptor First Strand cDNA Synthesis Kit (Roche, Nutley, N.J.). The primers (right: 5′-GCA GCT CGA CTG GAG TGA C-3′ (SEQ ID NO: 1) and left: 5′-CATCATGGCCATCAAAACAAT-3′(SEQ ID NO: 2)) and probe (cat. no. 04689135001) were designed with Universal Probe Library (Roche, Nutley, N.J.). Real-time PCR was performed using TaqMan PCR Master Mix at 50° C. for 2 min, 95° C. for 10 min and then 50 cycles (95° C. for 15 sec, 60° C. for 1 min). The data was collected on a Roche Light Cycler 480. The amounts of CYP24 were normalized using cyclophilin D as a housekeeping gene with comparative CT method."}, "[3]": {"tested_on": "human prostate carcinoma cell line PC-3", "test": "Proliferation of PC-3 prostate carcinoma cells", "format": "cell-based", "conditions": "PC-3, 72 h", "procedure": "(§1) Cells were seeded in 96-well plate and incubated with 20-hydroxycholecalciferol in DMEM medium containing 5% FBS for 48 h (FIG. 25A) or 72 h (FIG. 25C) or for 24 h after a 12 h synchronization in serum free medium (FIG. 25D). […] was added for a final 18 h (FIGS. 25A, 25D) or 12 h (FIG. 25C) of incubation or cells were assessed with sulforhodamine assay (FIG. 25C). Data is shown as mean±SEM (n=5; FIG. 24C) or mean±SEM (n=6; FIGS. 24A, 24C, 24D) and was analyzed using GraphPrism 4.0."}, "Col1A1 mRNA": {"tested_on": "Col1A1 mRNA", "test": "Real time RT PCR Col1A1 mRNA, TGF-b1 stimulated skin fibroblasts", "format": "cell-based", "conditions": "human skin fibroblasts", "procedure": "Additional studies using human skin fibroblasts were performed employing a type I collagen specific ELISA Chondrex, and real time RT PCR to quantitate type I collagen protein and Col1A1 mRNA expression in culture of human fibroblast stimulated by TGF-b1 in the presence and absence of 17,20S(OH)2pD3 and/or 20(OH)D3. These studies confirmed that Type I collagen protein production that was induced by TGF-b1 and that Col1A1 mRNA that was induced by TGF-b1 were suppressed by these analogues (FIGS. 44A-44B)."}, "[4]": {"tested_on": "human osteosarcoma cell line MG-63", "test": "Proliferation of MG-63 osteosarcoma cells", "format": "cell-based", "procedure": "as §1"}, "WM164": {"tested_on": "WM164", "test": "Flow cytometry cell cycle and subG1, WM164", "format": "cell-based", "conditions": "WM164, 24 h", "procedure": "MD-MBA-231, MG-63, PC-3, and WM164 cells were seeded into Petri dishes and then incubated for 24 h with 20-hydroxycholecalciferol in DMEM medium containing 5% FBS. Then cells were fixed, DNA stained and samples read with flow cytometer as described (7). Data was analyzed with Cell Quest (BD Biosciences). Cell cycle phases were assessed in viable cell populations and subG1 contents were calculated within whole cell population."}, "NFκBI (IκBα)": {"tested_on": "NFκBI (IκBα)", "test": "Western blot IκB-α in HaCaT and normal keratinocytes", "format": "cell-based, human", "conditions": "100 nM, time dependant", "procedure": "HaCaT keratinocytes were treated with 20,23-dihydroxycholecalciferol for indicated time: 0 h, 30 min, 1 h, 4 h, 16 h and 24 h, at the concentration of 10^−7 [M]. Cells were lysed and whole cell extract has been prepared. The equal amount of proteins calculates using Bradford method has been subjected to electrophoresis in SDS-PAGE 7-15% gel and transferred to a PVDF membrane (Millipore). The primary antibodies used were the rabbit polyclonal antibodies of anti+ IκB-α (Santa Cruz), 1:250 dilution, anti-p65 (Santa Cruz) 1:500 dilution and anti-β actin-peroxidase (Sigma) 1:1000 dilution. Secondary antibody used was anti rabbit-HRP (Santa Cruz) 1:7,000 dilution."}, "[5]": {"tested_on": "mouse erytholeukemia cells (Mel)", "test": "Viable cell count, MEL cells", "format": "cell-based", "conditions": "10^-7 M, 7 days", "procedure": "K562 human chronic myeloid leukemia (erythroleukemia) and MEL mouse erytholeukemia cells were cultured in RPMI 1640 containing 10% FBS and treated with the drugs at concentrations 0.1 μM. A 0.1% ethanol (EtOH) or 2% DMSO were used as negative or positive control, respectively to estimate the vehicle effect and the ability of the cells to differentiate. Media were exchanged every 72 h and drugs added every day. Growth of cultures was estimated by counting number of viable cells (trypan blue negative cells) as described previously."}},
  "data": [
    {"smiles": "C=C1/C(=C\\C=C2/CCC[C@]3(C)[C@@H]([C@H](C)CCCC(C)(C)O)CC[C@@H]23)C[C@@H](O)C[C@@H]1O", "note": "[1α,25-dihydroxycholecalciferol, (5Z,7E)-9,10-secocholesta-5,7,10(19)-triene-1α,3β,25-triol, reference compound]", "values": [
      {"measurement": "proliferation", "setting": "[1]", "value": "Dose dependent inhibition of the proliferation"},
      {"measurement": "proliferation", "setting": "[2]", "value": "Dose dependent inhibition of the proliferation"}
    ]},
    {"smiles": "C=C1CC[C@H](O)C/C1=C/C=C1\\CCC[C@@]2(C)[C@H]1CC[C@@H]2[C@@](C)(O)CCCC(C)C", "note": "[20(OH)D3, (5Z,7E)-9,10-secocholesta-5,7,10(19)-triene-3β,20-diol]", "values": [
      {"measurement": "increase of CYP24 mRNA levels", "setting": "CYP24; 10 nM, 24 h", "value": 1.3, "unit": "fold"},
      {"measurement": "stimulation of CYP24 mRNA", "setting": "CYP24; 10^−6, 24 h", "value": "~247", "unit": "fold"},
      {"measurement": "EC50", "setting": "[3]", "value": 0.57, "unit": "µM"},
      {"measurement": "TGF-b1 induced Col1A1 mRNA", "setting": "Col1A1 mRNA", "value": "suppressed"},
      {"measurement": "EC50", "setting": "[4]", "value": 0.57, "unit": "µM"},
      {"measurement": "G0/G1 of viable cells", "setting": "WM164", "value": 70, "unit": "%"},
      {"measurement": "G2/M of viable cells", "setting": "WM164", "value": 7},
      {"measurement": "S of viable cells", "setting": "WM164", "value": 24, "unit": "%"},
      {"measurement": "Viable Cells", "setting": "WM164", "value": 87},
      {"measurement": "subG1", "setting": "WM164; whole cell population", "value": 13}
    ]},
    {"smiles": "C=C1CC[C@H](O)C/C1=C/C=C1\\CCC[C@]2(C)[C@@H](C(C)(O)CC(O)CC(C)C)CC[C@@H]12", "note": "(stereo partly drawn) [20,23-dihydroxycholecalciferol, (5Z,7E)-9,10-secocholesta-5,7,10(19)-triene-3β,20,23-triol]", "values": [
      {"measurement": "NFκBI (IκBα) protein levels", "setting": "NFκBI (IκBα)", "value": "induced an increase in NFκBI (IκBα) protein levels"}
    ]},
    {"smiles": "C=C1CC[C@H](O)C/C1=C/C=C1\\CCC[C@]2(C)[C@@H](C(C)=O)CC[C@@H]12", "note": "[pD3, (5Z,7E)-3β-hydroxy-9,10-secopregna-5,7,10(19)-trien-20-one]", "values": [
      {"measurement": "proliferation of mouse erytholeukemia cells (Mel)", "setting": "[5]", "value": "inhibit proliferation"}
    ]}
  ]
}
